Assay results reported in patent EP2803317B1, “MRI METHOD FOR MEASURING DIFFUSION PARAMETERS OF TRACER IN LIVING ORGAN TISSUE SPACE AND EXTRACELLULAR SPACE” (Peking University Third Hospital, priority 2012, dated 2013).

Tests used:
[1] = MRI tracer method: diffusion parameters of Gd-DTPA in the glioma brain; type: in vivo; details: glioma brain of the rat
From the text: Table 8: the diffusion parameter of Gd-DTPA in the glioma brain of the rat

[2] = MRI tracer method: diffusion parameters of Gd-DTPA in brain ECS of SD rats, fitted from time-series MRI images; type: in vivo; details: for λ: tortuosity
Experimental: (§1) A method for computing the physiological parameter in the living organism will be illustrated with the following embodiment. In the embodiment, Gadolinium-diethylenetriaminepentaacetic acid (Gd-DTPA) which is Mag-nevist solution produced by Bayer Schering Pharma AG was used as the tracer. The corresponding MRI signal intensities of the tracer with the actual concentration in agarose gel and rat brain were measured. Male Sprague Dawley rats weighing 250-300g were used in the experiment. The living organism used for measurement is the rat brain. A Siemens Magnetom Trio 3.0 T MRI system was used to obtain the rat brain images.
(§2) In this embodiment, the position of the injection site Q and the depth of Gd-DTPA microinjection of the rat brains were determined by three-dimensional reconstructed image basing on the brain stereotaxic atlas. The specific method was: preparing skin, shaving between the eyes of rats about 4cm skin backwards along the midline of the skull and exposing the skull plate; then fixing the rats in a stereotactic apparatus and administrating the drug at the injection site Q using magnetic drug delivery system; rubbing off the skull plate at the entry point with an electric drill, setting a micro syringe into the brain and manually administrating 2µLGd-DTPA solution with the concentration of 10mM into the target location in three injection with the interval of 5min. The syringe was left for 10 min in the brain when drug injection was finished before the micro syringe was exited and the skin was sutured. Scanned images were taken in 15min, 30min, 1h, 2h, 3h, 4h, 6h, 9h and 12h and imaging parameters were set as the mentioned above.
As shown in the FIG., the bias field is first to be correct to eliminate the signal strength deviation among the sequence of images; the image registration technique is then used to unify the position of the increment images with the referenced images; the diffusion model is finally solved via the distribution of the tracer concentration from different times obtained by the analysis of the signal strength increment.
Although the tortuosity varies in different directions and remains unchanged in the same direction in equation (5), the real tortuosity probably varies in the same direction. The space variability of the tortuosity should be determined to accurately describe the real diffusion process. The tortuosity of a point (x, y, z) in space is: λ = λ(x, y, z) [formula] or written in a polar coordinates: λ = λ(r, θ, φ) [formula] the diffusion model is changed to: (∂C)/(∂t) = (D)/(λ((x, y, z))^2)(∇)^2 C−(Q)/(α)−k′C [formula]
Although equation (10) fully considers the space variability of the tortuosity, the solution of equation (8) is difficult to get. The equation (8) is a partial differential formula with variable coefficients and usually has no analytic solution. The continuous problem can be turned into a discrete problem to solve the equation (10): ΔSI(t+Δt)−ΔSI(t) = (D)/(λ((x, y, z))^2)(∇)^2 (ΔSI) + (Q)/(α)k−k′ΔSI(t) + k′b [formula] wherein, Δt is the sampling time in each unit, [formula] Δi represents the space distance of sampling along the axis i. It depends on the space resolution of the image along the axis i.
For the discrete equation (11), the space tortuosity λ, the loss ratio k' and the part volume ratio α can be fit by the least squares method, i.e. the solution of the below optimization problem is required: [formula]
Write the equation (12) in a matrix form and get: min f(λ,α,k′) = ‖Ax−b‖2^2 [formula] wherein, the nonvanishing element in the line (x, y, z, t,:) of the matrix A is : ((∂)^2 ΔSI)/((∂)^2 r) + k−ΔSI + b [formula] the line (x, y, Z, t,) of the known vector b is: b(x,y,z,t,:) = ΔSI(t+Δt)−ΔSI(t) [formula] the substitution variable x is: x = ([(D)/(λ((x, y, z))^2),(Q)/(α),k′])^T [formula] […]

[3] = MRI tracer method: distribution volume, distribution volume fraction and macro clearance of Gd-DTPA in brain hemisphere ECS after injection in caudate nucleus; type: in vivo, SD rats; details: for Macro clearance: injection to the caudate nucleus of eight SD rats; for Distribution Volume Fraction: rat brain hemisphere; for Distribution Volume Fraction / Distribution Volume (Vd): after injection in caudate nucleus; for Distribution Volume (Vd): rat brain
Experimental: as §1, §2
(§3) Calculation method about distribution volume (Vd), distribution volume fraction and general clearance of the tracer in the living organism is as follows: reconstructing the registered and subtracted images into axial images; quantitative measuring the signal increment region in image of each layer via the Matlab program as shown in figures; and recording the number of pixels in the increment region and the signal intensity value of each pixel. According to the integral principle, we can obtain the distribution volumes (Vd) of the tracer (Gd-DTPA) from different times in the brain hemisphere ECS via adding up the increment region of each layer. The distribution volume fraction of Gd-DTPA in the brain hemisphere ECS can be obtained by dividing the Vd from different times by the volume of the brain hemisphere of the rat. The macro clearance is defined as the total signal intensity at a previous time subtracting the total signal intensity at a later time, then dividing the initial total signal intensity.
The selected region in the FIG. is obtained by subtracting the image before increment from the increment image. The increment region is shown as the "bright region" and the other un-increment region is shown as the "dark region". […] Using the bulleted method above can measure the Vd, the distribution volume fraction and the macro clearance of the caudate nucleus.

[4] = MRI tracer method: distribution volume and macro clearance of Gd-DTPA in the skeletal muscle gap; type: in vivo; details: rat skeletal muscle gap
From the text: as §3
(§4) Although the above invention is for the brain ECS of the SD rat, the present invention is applicable to other the living organisms. […] The left high signal region adjacent to the femur is the Gd-DTPA's diffusion region after injection.

[5] = MRI tracer method: diffusion parameters of Gd-DTPA in the skeletal muscle gap; type: in vivo; details: rat skeletal muscle gap
From the text: as §4

[6] = MRI tracer method: distribution volume, distribution volume fraction and macro clearance of Gd-DTPA in the glioma brain; type: in vivo; details: glioma brain of the rat
From the text: as §3
Using the same method as used in the brain ECS, we can learn the time-varying change rule of distribution volume of the Gd-DTPA in the glioma brain of the rat. Table 9: the time-varying change rule of distribution volume of the Gd-DTPA in the glioma brain of the rat

[7] = SD rat brain, caudate putamen (CPu), Gd-DTPA 2µL, 10mM microinjection
[8] = SD rat brain, medial prefrontal cortex (mPFC), Gd-DTPA 2µL, 10mM microinjection
[9] = SD rat brain, occipital cortex (Oc), Gd-DTPA 2µL, 10mM microinjection
[10] = SD rat brain, substantianigra (SN), Gd-DTPA 2µL, 10mM microinjection
[11] = SD rat brain, thalamus (T), Gd-DTPA 2µL, 10mM microinjection
[12] = rats' caudate nucleus region, anisotropic, direction -X
[13] = rats' caudate nucleus region, anisotropic, direction -Y
[14] = rats' caudate nucleus region, anisotropic, direction -Z
[15] = rats' caudate nucleus region, anisotropic, direction X
[16] = rats' caudate nucleus region, anisotropic, direction Z

O=C([O-])CN(CCN(CC(=O)[O-])CC(=O)O)CCN(CC(=O)[O-])CC(=O)O.[Gd+3] [Gd-DTPA, Gadolinium-diethylenetriaminepentaacetic acid]
k' ([1]; direction -X): 3.31 ×10^-4/mM·L^-1·s^-1 | k' ([1]; direction -Y): 3.12 ×10^-4/mM·L^-1·s^-1 | k' ([1]; direction -Z): 3.05 ×10^-4/mM·L^-1·s^-1 | k' ([1]; direction X): 3.13 ×10^-4/mM·L^-1·s^-1 | k' ([1]; direction Z): 3.15 ×10^-4/mM·L^-1·s^-1 | D^∗ [2, 7]: 3.38 ×10^-4/mm^2·s^-1 | k' [2, 7]: 0.76 ×^10-4/mM· L^-1· s^-1 | D^∗ [2, 8]: 2.31 ×10^-4/mm^2·s^-1 | k' [2, 8]: 2.38 ×^10-4/mM· L^-1· s^-1 | D^∗ [2, 9]: 3.25 ×10^-4/mm^2·s^-1 | k' [2, 9]: 1.55 ×^10-4/mM· L^-1· s^-1 | D^∗ [2, 10]: 2.06 ×10^-4/mm^2·s^-1 | k' [2, 10]: 8.28 ×^10-4/mM· L^-1· s^-1 | D^∗ [2, 11]: 3.28 ×10^-4/mm^2·s^-1 | k' [2, 11]: 1.44 ×^10-4/mM· L^-1· s^-1 | D^∗ [2, 12]: 3.57 ± 0.88 ×10^-4/mm^2·s^-1 | k' [2, 12]: 7.14 ± 3.06 ×10^-5/mM·L^-1·s^-1 | D^∗ [2, 13]: 3.05 ± 0.93 ×10^-4/mm^2·s^-1 | k' [2, 13]: 7.59 ± 4.04 ×10^-5/mM·L^-1·s^-1 | D^∗ [2, 14]: 4.01 ± 0.60 ×10^-4/mm^2·s^-1 | k' [2, 14]: 7.88 ± 6.24 ×10^-5/mM·L^-1·s^-1 | D^∗ [2, 15]: 3.73 ± 1.10 ×10^-4/mm^2·s^-1 | k' [2, 15]: 7.67 ± 3.96 ×10^-5/mM·L^-1·s^-1 | D^∗ [2, 16]: 2.54 ± 1.27 ×10^-4/mm^2·s^-1 | k' [2, 16]: 7.74 ± 4.07 ×10^-5/mM·L^-1·s^-1 | λ ([2]; SD rat brain, caudate putamen (CPu)): 1.24 | λ ([2]; SD rat brain, medial prefrontal cortex (mPFC)): 1.50 | λ ([2]; SD rat brain, occipital cortex (Oc)): 1.26 | λ ([2]; SD rat brain, substantianigra (SN)): 1.59 | λ ([2]; SD rat brain, thalamus (T)): 1.26 | Macro clearance ([3]; time 1-2 h): 0.23 h⁻¹ | Macro clearance ([3]; time 2-3 h): 0.12 h⁻¹ | Macro clearance ([3]; time 3-4 h): 0.19 h⁻¹ | Macro clearance ([3]; time 4-6 h): 0.11 h⁻¹ | Macro clearance ([3]; time 6-9 h): 0.06 h⁻¹ | Macro clearance ([3]; time 9-12 h): 0.08 h⁻¹ | Distribution Volume Fraction ([3]; time 1 h): 7.55% | Distribution Volume Fraction ([3]; time 2 h): 9.48% | Distribution Volume Fraction ([3]; time 3 h): 9.45% | Distribution Volume Fraction ([3]; time 4 h): 8.20% | Distribution Volume Fraction ([3]; time 6 h): 6.96% | Distribution Volume Fraction ([3]; time 9 h): 4.29% | Distribution Volume Fraction ([3]; time 12 h): 1.33% | Distribution Volume (Vd) ([3]; time 1 h): 724.75 mm^3 | Distribution Volume (Vd) ([3]; time 2 h): 910.50 mm^3 | Distribution Volume (Vd) ([3]; time 3 h): 907.25 mm^3 | Distribution Volume (Vd) ([3]; time 4 h): 787.57 mm^3 | Distribution Volume (Vd) ([3]; time 6 h): 668.50 mm^3 | Distribution Volume (Vd) ([3]; time 9 h): 411.57 mm^3 | Distribution Volume (Vd) ([3]; time 12 h): 128.13 mm^3 | Vd ([4]; time 5 min): 407 mm^3 | Vd ([4]; time 10 min): 383 mm^3 | Vd ([4]; time 15 min): 234 mm^3 | Vd ([4]; time 25 min): 0 mm^3 | Macro clearance ([4]; time(h) 5-10): 0.28 h⁻¹ | Macro clearance ([4]; time(h) 10-15): 0.36 h⁻¹ | Macro clearance ([4]; time(h) 15-25): 0.36 h⁻¹ | D^∗ ([5]; direction -X): 2.611 ×10^-4/mm^2·s^-1 | k' ([5]; direction -X): 2.359 ×10^-4/mM·L^-1·s^-1 | D^∗ ([5]; direction -Y): 8.235 ×10^-4/mm^2·s^-1 | k' ([5]; direction -Y): 10.940 ×10^-4/mM·L^-1·s^-1 | D^∗ ([5]; direction -Z): 7.154 ×10^-4/mm^2·s^-1 | k' ([5]; direction -Z): 5.083 ×10^-4/mM·L^-1·s^-1 | D^∗ ([5]; direction X): 2.930 ×10^-4/mm^2·s^-1 | k' ([5]; direction X): 2.870 ×10^-4/mM·L^-1·s^-1 | D^∗ ([5]; direction Z): 9.537 ×10^-4/mm^2·s^-1 | k' ([5]; direction Z): 7.817 ×10^-4/mM·L^-1·s^-1 | Macro clearances ([6]; time 0.5-1 h): 0.23 h⁻¹ | Macro clearances ([6]; time 1-2 h): 0.36 h⁻¹ | Macro clearances ([6]; time 2-3 h): 0.41 h⁻¹ | Distribution Volume Fraction ([6]; time 0.25 h): 4.85% | Vd ([6]; time 0.25 h): 466 mm^3 | Distribution Volume Fraction ([6]; time 0.5 h): 6.78% | Vd ([6]; time 0.5 h): 651 mm^3 | Distribution Volume Fraction ([6]; time 1 h): 7.50% | Vd ([6]; time 1 h): 720 mm^3 | Distribution Volume Fraction ([6]; time 2 h): 5.24% | Vd ([6]; time 2 h): 503 mm^3 | Distribution Volume Fraction ([6]; time 3 h): 0% | Vd ([6]; time 3 h): 0 mm^3
